Legend:
Assay in all cases: relative viability (nuclei count vs DMSO), 5 days (fraction); higher = more cells survive
XMD13-2 + Phenformin = compound: C1CC1C(=O)NC2=NNC3=C2C=CC(=C3)C4=CC(=CC=C4)C(=O)NC5CC5 [XMD13-2] + N=C(N)NC(=N)NCCc1ccccc1 [Phenformin] (partner 250 µM)
Procedure, shortened: (§1)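 Dosing by pin tool came one day after lung cancer cell lines were seeded in 1536-well plates, using either one drug or a fixed anchor-drug dose plus five library-drug doses (not always all listed) in √10 steps. After 5 days, nuclei were counted on 4× images. Relative viability is treated-well nuclei count divided by vehicle-well nuclei count, and values are medians of duplicate plates.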

ALW-II-49-7 + Lapatinib = compound: Cc1ccc(C(=O)Nc2cccc(C(F)(F)F)c2)cc1Nc1cncc(C(N)=O)c1 [ALW-II-49-7] + CS(=O)(=O)CCNCc1ccc(-c2ccc3ncnc(Nc4ccc(OCc5cccc(F)c5)c(Cl)c4)c3c2)o1 [Lapatinib] (partner 2 µM)
Procedure, shortened: as §1

XMD13-2 + Dasatinib = compound: C1CC1C(=O)NC2=NNC3=C2C=CC(=C3)C4=CC(=CC=C4)C(=O)NC5CC5 [XMD13-2] + Cc1nc(Nc2ncc(C(=O)Nc3c(C)cccc3Cl)s2)cc(N2CCN(CCO)CC2)n1 [Dasatinib] (partner 0.075 µM)
Procedure, shortened: as §1

Dasatinib + OSI-027 = compound: Cc1nc(Nc2ncc(C(=O)Nc3c(C)cccc3Cl)s2)cc(N2CCN(CCO)CC2)n1 [Dasatinib] + COc1cccc2cc(-c3nc([C@H]4CC[C@H](C(=O)O)CC4)n4ncnc(N)c34)[nH]c12 [OSI-027] (partner 0.5 µM)
Procedure, shortened: as §1

Cell Line	relative viability (XMD13-2 + Phenformin; first compound 0.05 µM)	relative viability (XMD13-2 + Phenformin; first compound 0.1581 µM)	relative viability (XMD13-2 + Phenformin; first compound 0.5 µM)	relative viability (XMD13-2 + Phenformin; first compound 1.581 µM)	relative viability (XMD13-2 + Phenformin; first compound 5 µM)	relative viability (ALW-II-49-7 + Lapatinib; first compound 0.08 µM)	relative viability (ALW-II-49-7 + Lapatinib; first compound 0.253 µM)	relative viability (ALW-II-49-7 + Lapatinib; first compound 0.8 µM)	relative viability (ALW-II-49-7 + Lapatinib; first compound 2.53 µM)	relative viability (ALW-II-49-7 + Lapatinib; first compound 8 µM)	relative viability (XMD13-2 + Dasatinib; first compound 0.05 µM)	relative viability (XMD13-2 + Dasatinib; first compound 0.1581 µM)	relative viability (XMD13-2 + Dasatinib; first compound 0.5 µM)	relative viability (XMD13-2 + Dasatinib; first compound 1.581 µM)	relative viability (XMD13-2 + Dasatinib; first compound 5 µM)	relative viability (Dasatinib + OSI-027; first compound 0.005 µM)	relative viability (Dasatinib + OSI-027; first compound 0.01581 µM)	relative viability (Dasatinib + OSI-027; first compound 0.05 µM)	relative viability (Dasatinib + OSI-027; first compound 0.1581 µM)	relative viability (Dasatinib + OSI-027; first compound 0.5 µM)
HCC-366	0.705	0.577	0.633	0.569	0.611	1.21	1.32	1	1.09	1.13	0.775	0.48	0.783	0.585	0.662	0.662	0.338	0.365	0.375	0.243
HCC-827	0.443	0.366	0.405	0.478	0.392	0.17	0.237	0.189	0.178	0.175	0.321	0.21	0.317	0.253	0.337	0.805	0.745	0.557	0.456	0.119
HOP-62	0.671	0.687	0.837	0.595	0.553	1.17	1.24	1.1	0.806	0.639	0.699	0.689	0.794	0.605	0.6	0.856	0.864	0.743	0.546	0.196
IA-LM	–	–	–	–	–	0.83	0.906	0.645	0.152	0.169	–	–	–	–	–	–	–	–	–	–
LC-2-ad	0.586	0.584	0.669	0.546	0.528	0.812	0.96	0.932	0.947	0.753	0.899	0.39	0.711	0.535	0.559	0.932	0.867	0.526	0.34	0.345
LCLC-97TM1	0.441	0.441	0.425	0.492	0.459	1.03	1.06	1.06	0.842	1.01	0.829	0.784	0.839	0.728	0.695	0.557	0.598	0.55	0.606	0.38
LCLC-103H	0.397	0.357	0.357	0.326	0.343	–	–	–	–	–	0.688	0.46	0.445	0.515	0.527	0.437	0.38	0.403	0.38	0.146
LK-2	0.607	0.496	0.455	0.334	0.392	1.01	0.778	0.919	0.567	0.825	0.343	0.276	0.361	0.304	0.234	0.2	0.174	0.158	0.167	0.172
LOU-NH91	0.83	0.663	0.732	0.582	0.867	0.738	0.809	0.742	0.589	0.699	0.591	0.586	0.566	0.479	0.525	0.705	0.604	0.595	0.526	0.344
